Measured values taken from patent US7361785B2, “Compound protecting against ultraviolet rays” (Lead Chemical Co., Ltd., priority 2002, dated 2008).

How the values were obtained:
guinea pigs' skin = assay: Blocking effects against UV ray irradiated on guinea pigs' skin; format: in vivo, male Hartley guinea pigs; details: for UV ray blocking effect score: total score for 2.5% and 5% ointments, 6 irradiated sites each scored 0-4, complete blocking = 24, UV 3000 Lux for 90 s, read 24 hours after irradiation
Method: Each compound of the present invention and commercially available p-methoxy cinnamic acid-2-ethyl hexyl as a positive reference were mixed with an ointment base (Plastibase), and 2.5% (mass % of active ingredient) and 5% ointment were prepared for each. The belly area of male Hartley guinea pigs that were 6 to 10 weeks old was shaved, and then further close shaved using an electric shaver. The test animals were then anaesthetized by injecting pentobarbital sodium (30 mg/kg) in their abdominal cavity. Then, 100 mg of the base material, 2.5% ointment and the 5% ointment were respectively spread in 6 to 7 cm long/15 cm wide areas of the shaved belly area of the test animal starting from its head. 10 minutes after spreading, the skin was covered with a piece of felt in which 9 holes (3×3) with 1 cm diameter had been made. A UV ray (3000 Lux) was then irradiated for a 90 second period. 24 hours after the irradiation, the intensity of the red circular marks that had been produced were observed, and the blocking effect investigated. Note that, the evaluation of the UV ray blocking effect was carried out in accordance with the following evaluation criteria (score based on 5 level evaluation).
In advance, 99 types of related compound were prepared using the test method described above as 10% ointments including the compounds of the present invention (the compounds expressed by formula I) and the compounds that are the active ingredient of the UV ray protection agent of the present invention (the compounds expressed by formula I′). A screening test was performed, and 9 compounds that 100% blocked the UV rays selected. Then, lower concentration ointments were prepared for these 9 compounds and an investigation was carried out to test the UV ray protection effect thereof. Note that, as a reference compound, the results for p-methoxy cinnamic acid ethyl hexyl that is used as the active ingredient in commercially sold UV ray protection agents are also shown.

mice = assay: Acute toxicity resulting from single under skin injection in mice; format: in vivo, male ddY mice; details: single under skin injection 1 g/kg; for Case of death: groups of five mice; for Case of death / Observed items: observed 1 week; for body weight of the mice following injection: weighed on days 1, 3, 6, 7
Method: (§1) An investigation was carried out using 5 week old male ddY mice.
(§2) Each compound (250 mg) was placed in suspension using the same amount of Tween-80, and then diluted with physiologic saline (5 mL) to form a 5% suspension. Then, supersonic treatment was performed to create the specimen. 0.2 mL/10 g (1 g/kg) of the specimen was injected per body weight under the skin of the back portion of each mouse in groups of five mice. The behavior of the mice was then observed for 1 week after injection while the mice were fed. The body weight of the mice was measured on the 1st, 3rd, 6th and 7th days. After one week, an abdominal section was performed, and changes in the various internal organs and abnormality of the injected area checked for.

[1] = as above; format: in vivo, male ddY mice; details: male, ddY, mouse, in vivo, subcutaneous, 1 g/kg; single under skin injection, mice
Method: as §1, §2

| SMILES | UV ray blocking effect score (guinea pigs' skin) | body weight by the 7th day following injection (mice) | Case of death (mice) | Observed items (mice) | body weight of the mice following injection (mice) | LD50 at 1 week [1] | UV ray protection effect (in words) (guinea pigs' skin; 2.5% and 5% ointments, comparison within Table 1) |
| --- | --- | --- | --- | --- | --- | --- | --- |
| C/C=C/C(=O)Nc1ccccc1C(=O)O [CU-1008] | 20 | – | – | – | – | – | – |
| Cc1ccccc1OC(=O)c1ccc2ccccc2c1 [CU-2010, o-tolyl-2-naphthyl carboxylate] | 21 | – | – | – | – | – | – |
| COc1cccc(C(=O)Oc2ccccc2C)c1 [CU-2102] | 15 | – | – | – | – | – | – |
| Cc1ccc(OC(=O)c2ccc3ccccc3c2)cc1 [CU-5004, p-tolyl-2-naphthyl carboxylate] | 20 | recovered to its level at the time of the first injection | 0/5 | Weight reduction | decreased | ≥ 1000 mg/kg | – |
| COc1cccc(C(=O)Oc2ccc(C)cc2)c1 [CU-5008] | 13 | recovered to its level at the time of the first injection | 0/5 | Weight reduction | decreased | ≥ 1000 mg/kg | – |
| COc1ccc(C(=O)Oc2ccc(C)cc2)cc1 [CU-5009, p-tolyl anisate] | 19 | recovered to its level at the time of the first injection | 0/5 | Weight reduction | decreased | ≥ 1000 mg/kg | – |
| O=C(Oc1cccc2ccccc12)c1ccccc1F [CU-9005] | 24 | – | – | – | – | – | strongest UV ray protection effect |
| O=C(Oc1ccc2ccccc2c1)c1ccccc1F [CU-10005] | 7 | – | 0/5 | No abnormalities | increased following injection in the same manner as the body weight of the mice in a reference group | ≥ 1000 mg/kg | – |
| Cc1ccc([N+](=O)[O-])cc1OC(=O)C=Cc1ccccc1 [CU-11005] | 12 | – | – | – | – | – | – |
| CCCCC(CC)COC(=O)C=Cc1ccc(OC)cc1 (stereo not drawn) [p-Methoxy-cinnamic acid-2-ethyl hexyl, reference compound] | 18 | – | – | – | – | – | – |
